Like-named read-outs stand apart in the source and are kept apart here.
Legend:
[1] = design: method as in PMID 23141914; conditions: cited from earlier work
Huh7.5-J6/JFH1 cells = assay: FACS analysis of LD-positive (BODIPY) J6/JFH1 cells; format: cell-based; conditions: 8 μM, 72 h, with BODIPY; DMSO 78.2%
Procedure: Huh7.5-J6/JFH1 cells were plated onto a 10 cc plate (Corning) and supplemented with either DMSO or 8 μM of 10j for 72 h. Then, Huh7.5-J6/JFH1 cells were fixed by using 4% paraformaldehyde for 10 min and permeabilized using 0.1% saponin in PBS for 20 min. Huh7.5-J6/JFH1 cells were stained with 0.001% BODIPY 493/503 D3922 (Invitrogen) in saponin for 1 h at 4 °C. The FACSAriaIII (BD Biosciences, Franklin Lakes, NJ, USA) was used for the flow cytometric analysis as previously described.

Huh7.5 cells [2] = assay: TG quantification assay in Huh7.5 cells; format: cell-based; conditions: 8 μM, 72 h
Procedure: Cells were washed with cold PBS, suspended, and homogenized in 1 mL of 5% NP-40/ddH2O solution. Then, homogenized cells were slowly heated to 90 °C for 5 min or until the NP-40 becomes cloudy, then cooled down to room temperature. Previous step was repeated to solubilize all TG. Cells were centrifuged for 2 min at top speed using a microcentrifuge to remove any insoluble material. Samples were diluted 10-fold with ddH2O before proceeding with the assay. […] Samples were added with 50 μL of reaction mix into each well and incubated at room temperature for 60 min while protected from light. Fluorescence was measured by using a fluorometric reader with Ex/Em = 535/590 nm. The amount of TG from standard sample was calculated using the following equation: Ts=Corrected absorbance−(y−intercept)/slope The amount of intracellular TG was calculated using the following equation: Concentration=Ts/Sv*D where the Ts is the amount of TG from standard curve and Sv is the volume of sample added to sample wells and D is the sample dilution factor.

Huh7.5 cells [3] = assay: visualization of intracellular LD by BODIPY in Huh7.5 cells; format: cell-based; conditions: 8 μM, 72 h
Procedure: Huh7.5 cells were incubated in a 24-well plate on top of coverslip in the presence of either DMSO, 8 μM of 10j, or 20 μM of A922500 for 72 h. Then, Huh7.5 cells were fixed by using 4% paraformaldehyde for 15 min and stained with 0.001% BODIPY 493/503 D3922 (Invitrogen, Carlsbad, CA, USA) for 10 min. The coverslips were mounted onto slides using Prolong Gold anti-fade reagent with DAPI (Invitrogen, Carlsbad, CA, USA) Fluorescence were examined and captured by Nikon confocal laser scanning microscopic system. LD content was quantified using the ImageJ program.

HNF4α = HNF4α western blot in Huh7.5-J6/JFH1 cells; format: cell-based; conditions: up to 10 μM, 72 h
Description: Since DGATs play an important role in maintaining liver-likeness in hepatocytes, the antiviral effect of 10j might be due to mere loss of this liver-specific character. […] In addition, HNF4α was also reported to be reduced in DGAT1-silenced cell lines. Therefore, we wished to test effects of 10j on HNF4α.

[4] = test system: HCV genotype 2a (Huh7.5-J6/JFH1); assay: HCV particle production: infectivity of supernatant on naive Huh7.5 cells by real-time RT-PCR; format: cell-based, hepatitis C virus; conditions: for effect on HCV particle production: 10 μM; for EC50: Hepatitis C virus, read-out: EC50 on HCV particle production
Procedure: A922500, a commercially available DGAT-1-specific inhibitor was used as a positive control [10]. […] Therefore, we decided to examine effects of these twelve DGAT inhibitors on HCV particle production as well as RNA genome replication in parallel. For this purpose, we transfected Huh7.5 cells with in vitro-transcribed genotype 2a HCV RNAs (Huh7.5-J6/JFH1) [16] and treated them with each DGAT inhibitor for 6 and 72 h at 10 μM. HCV genome replication as well as host GAPDH RNA levels was quantitated by a real-time RT-PCR analysis. For assessment of HCV particle production, we harvested and filtered the supernatant from Huh7.5-J6/JFH1 cells treated with DGAT inhibitors and incubated the supernatant with naïve huh7.5 cells for 72 h. Then, infectivity was measured by a real-time RT-PCR analysis.
Huh7.5-J6/JFH-1 cells were seeded into 6-well plates at a density of 3 × 10^5 cells per well with DMEM containing 10% FBS. […] Total RNAs were extracted from treated cells and virus-containing media were harvested at each time point. Naïve Huh7.5 cells were infected with these virus-containing media after concentration with centricons.

DGAT-1 = molecular target: T1, DGAT-1 (Homo sapiens, UniProt O75907); assay: DGAT-1 in vitro assay, membrane fractions of DGAT-1-transfected 293T cells, NBD-palmitoyl CoA, TLC; format: biochemical
T1 construct: expressed in transfected cells; host or cells: 293T cells (membrane fraction)
T1 sequence (O75907 1-488): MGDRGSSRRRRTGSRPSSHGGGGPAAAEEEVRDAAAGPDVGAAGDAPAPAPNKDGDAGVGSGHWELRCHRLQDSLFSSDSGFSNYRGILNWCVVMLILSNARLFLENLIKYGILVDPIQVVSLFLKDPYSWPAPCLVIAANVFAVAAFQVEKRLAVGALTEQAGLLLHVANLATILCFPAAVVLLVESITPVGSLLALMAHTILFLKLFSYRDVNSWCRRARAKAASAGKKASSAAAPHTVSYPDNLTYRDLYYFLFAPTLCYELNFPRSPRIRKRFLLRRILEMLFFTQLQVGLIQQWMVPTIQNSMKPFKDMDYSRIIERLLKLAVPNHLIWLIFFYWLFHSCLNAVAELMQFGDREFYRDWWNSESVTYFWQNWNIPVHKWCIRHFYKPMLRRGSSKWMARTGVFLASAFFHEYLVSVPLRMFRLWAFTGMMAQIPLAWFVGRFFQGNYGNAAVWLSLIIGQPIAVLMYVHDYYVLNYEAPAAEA
Procedure: pcDNA3.1-DGAT1 plasmid was transfected into 293T cells by using a lipofectamine 2000 transfection reagent (Invitrogen) as described by the manufacturer. At 24 h after transfection, transfected cells were harvested and cells were resuspended with 500 μL of 50 mM Tris-HCL/250 mM sucrose. Resuspended cells were disrupted by 15 passages through a 27-gauge needle and centrifugation at 600× g for 5 min. The supernatant was ultracentrifuged at […] for 30 min and the supernatant was discarded. The pellets were resuspended in a total of 500 μL of 50 mM ice-cold Tris-HCl/250 mM sucrose. Then, a master mix containing 20 μL of 1 M-Tris-HCl, 4 μL of 1 M MgCl2, 10 μL of 4 mM DOG in acetone, 10 μL of 12 mg/mL BSA and 10 μL of 500 μM NBD-palmitoyl CoA in 20 mM Tris was prepared and incubated at 37 °C for 2 min. Also, 50 μg total membrane proteins were incubated with 10j and A922500 at 37 °C for 1 h. Extracted proteins were added into master mix and incubated at 37 °C for 10 min. The reaction was terminated by adding 4 mL CHCl3/methanol (2:1, v/v). Samples were mixed by vortexing and 800 μL of water was added and remixed. Samples were allowed to sit at room temperature for 1 h. […] Plate was allowed to air dry for 1 h before quantification of reaction products. The synthesized TG was determined by the ChemiDoc imaging system (Bio-Rad, Hércules, CA, USA).

SMILES: O=C(NCc1ccco1)c1ccc2[nH]c(COc3ccc(C45CC6CC(CC(C6)C4)C5)cc3)nc2c1 [10j, 2-{[4-(adamant-1yl)phenoxy]methyl)-N-(furan-2-ylmethyl)-1H-benzo[d]imidazole-5-carboxamide]
- fat tissues ([1]; mice fed with high-fat diet, versus control mice): significant decrease
- high-density lipoprotein-cholesterol ([1]; mice): significant increase
- total TG, total cholesterol and low-density lipoprotein cholesterol in the blood ([1]; mice): decreased levels
- relative number of LD-positive J6/JFH1 cells (Huh7.5-J6/JFH1 cells): 38.6%
- reduction of endogenous level of TG (Huh7.5 cells [2]): 83%
- reduction in the level of LDs (BODIPY) (Huh7.5 cells [3]): 49%
- expression levels of HNF4α (HNF4α): remained unaltered
- effect on HCV particle production ([4]; 6 h (Figure 1B)): able to block HCV particle production
- effect on HCV particle production ([4]; 72 h (Figure 1D)): able to block both viral RNA genome replication and particle production
- EC50 ([4]; Huh7.5, 3 h): 1000 nM
- EC50 ([4]; Huh7.5, 6 h): 1700 nM
- EC50 ([4]; Huh7.5, 12 h): 400 nM
- EC50 ([4]; Huh7.5, 24 h): 400 nM
- EC50 ([4]; Huh7.5, 48 h): 700 nM
- EC50 ([4]; Huh7.5, 72 h): 200 nM
- IC50 (DGAT-1; DGAT-1 membrane fractions from 293T cells, read-out: IC50, in vitro synthesis of TG by DGAT-1): 17400 nM
- IC50 (DGAT-1; Table 2 and Figure 6E, read-out: IC50 required for inhibition of the enzymatic DGAT activities in vitro (summary)): > 5000 nM

Source: article PMC6222871, “Suppression of Hepatitis C Virus Genome Replication and Particle Production by a Novel Diacylglycerol Acyltransferases Inhibitor” (Molecules : A Journal of Synthetic Chemistry and Natural …, 2018)
